Our source for the EC50 and Activity values is ChEMBL document CHEMBL2203276, “Design, synthesis and evaluation of novel zwitterionic compounds as PPARα/γ dual agonists (1)” (Bioorg Med Chem Lett, 2012).

For data set [1], the target named is T1, Peroxisome proliferator-activated receptor gamma (Homo sapiens, UniProt P37231).
T1 sequence (P37231 whole entry): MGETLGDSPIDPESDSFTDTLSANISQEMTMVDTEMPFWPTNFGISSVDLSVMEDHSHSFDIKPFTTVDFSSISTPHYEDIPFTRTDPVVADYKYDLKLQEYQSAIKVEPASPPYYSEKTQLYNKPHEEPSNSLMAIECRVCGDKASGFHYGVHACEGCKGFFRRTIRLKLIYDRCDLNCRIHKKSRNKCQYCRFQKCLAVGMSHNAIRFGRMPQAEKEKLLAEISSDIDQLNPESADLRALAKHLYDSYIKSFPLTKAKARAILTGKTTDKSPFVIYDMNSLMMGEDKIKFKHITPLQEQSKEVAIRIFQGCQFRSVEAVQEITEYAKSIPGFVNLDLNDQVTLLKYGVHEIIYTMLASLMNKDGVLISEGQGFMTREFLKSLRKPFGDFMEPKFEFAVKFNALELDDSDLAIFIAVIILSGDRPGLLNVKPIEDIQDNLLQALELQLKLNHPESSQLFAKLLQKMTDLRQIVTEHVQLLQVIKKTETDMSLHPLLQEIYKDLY
It is filed as functional, cell-based.
Description: Agonist activity at GAL4-fused PPARgamma assessed as transcriptional activity by cell based assay

Data set [2] has as its target T2, Peroxisome proliferator-activated receptor alpha (Homo sapiens, UniProt Q07869).
T2 sequence (Q07869 whole entry): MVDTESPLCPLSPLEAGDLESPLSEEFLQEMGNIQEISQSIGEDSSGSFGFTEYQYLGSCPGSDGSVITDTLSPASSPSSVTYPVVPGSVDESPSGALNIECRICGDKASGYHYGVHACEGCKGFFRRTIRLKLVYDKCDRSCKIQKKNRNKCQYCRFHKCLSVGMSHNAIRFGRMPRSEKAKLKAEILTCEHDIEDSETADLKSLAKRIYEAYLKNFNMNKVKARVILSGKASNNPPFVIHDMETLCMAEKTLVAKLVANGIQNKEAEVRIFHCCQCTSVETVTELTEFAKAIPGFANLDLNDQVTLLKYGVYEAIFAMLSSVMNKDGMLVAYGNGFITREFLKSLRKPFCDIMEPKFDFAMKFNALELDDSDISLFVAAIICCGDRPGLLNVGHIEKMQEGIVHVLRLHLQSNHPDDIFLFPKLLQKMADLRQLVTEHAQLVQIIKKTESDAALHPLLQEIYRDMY
Nature of the data set: Agonist activity at GAL4-fused PPARalpha assessed as transcriptional activity by cell based assay. It is filed as functional.

For data set [3], the system named is Mus musculus. Nature of the data set: Antidiabetic activity in db/db mouse type 2 diabetic model assessed as reduction of plasma triglyceride level at 10 mg/kg, po administered for 14 days. It is filed as functional. The arrangement: scale not given: the % may be the effect or the level left.
In data set [4] the test system is Mus musculus. Kind of data set: Toxicity in db/db mouse type 2 diabetic model assessed as reduction of body weight at 10 mg/kg, po administered for 14 days. It is filed as organism-based. Also on record: dose 10 mg/kg, route oral; scale not given: the % may be the effect or the level left. As to conditions: in vivo, 336 h.
The subject of data set [5] is Mus musculus. Kind of data set: Antidiabetic activity in db/db mouse type 2 diabetic model assessed as reduction of plasma glucose level at 10 mg/kg, po administered for 14 days. It is filed as functional. Also on record: scale not given: the % may be the effect or the level left.
In data set [6] the test system is Mus musculus. Kind of data set: Antidiabetic activity in db/db mouse type 2 diabetic model assessed as reduction of plasma glucose level at 30 mg/kg, po administered for 14 days. Also on record: scale not given: the % may be the effect or the level left. It is filed as functional.
Data set [7] deals with Mus musculus. Nature of the data set: Toxicity in db/db mouse type 2 diabetic model assessed as reduction of body weight at 30 mg/kg, po administered for 14 days. It is filed as organism-based. As to conditions: in vivo, 336 h. The arrangement: dose 30 mg/kg, route oral; scale not given: the % may be the effect or the level left.
The subject of data set [8] is Mus musculus. Kind of data set: Antidiabetic activity in db/db mouse type 2 diabetic model assessed as reduction of plasma triglyceride level at 30 mg/kg, po administered for 14 days. It is filed as functional. Also on record: scale not given: the % may be the effect or the level left.

For orientation: EC50 means the concentration that produces a half-maximal response. Regarding `Cc1oc(-c2ccccc2)nc1CN(Cc1ccco1)Cc1ccc(OC(C)(C)C(=O)O)cc1Cl`, the EC50 was found to be 890 nM in data set [1] and 36 nM in data set [2].
For `COc1cc(OC(C)(C)C(=O)O)ccc1CN(Cc1ccco1)Cc1nc(-c2ccccc2)oc1C`, in that order: 330 nM and 32 nM.
With `Cc1cc(CN(Cc2ccco2)Cc2nc(-c3ccccc3)oc2C)cc(C)c1OC(C)(C)C(=O)O`, the Activity with Mus musculus [3] is recorded as 88%; in the data set on Mus musculus [4] it was -7.6%; in the data set on Mus musculus [5] it was 74%. For the same molecule, the concentration for a half-maximal effect (EC50) in data set [1] is 4.7 nM; in data set [2], 1.7 nM.
Take `COc1cc(CN(Cc2ccco2)Cc2nc(-c3ccccc3)oc2C)ccc1OC(C)(C)C(=O)O`: the EC50 in data set [1] was 180 nM; in data set [2], 9 nM.
For `Cc1cc(CN(Cc2ccco2)Cc2nc(-c3ccccc3)oc2C)ccc1OC(C)(C)C(=O)O`, in that order: 42 nM and 3.9 nM.
As for `Cc1oc(-c2ccccc2)nc1CN(Cc1ccc(OC(C)(C)C(=O)O)c(Cl)c1)Cc1ccco1`, the 50% effective concentration (EC50) in data set [1] was found to be 71 nM; in data set [2] it was 5.1 nM.
For `Cc1oc(-c2ccccc2)nc1CN(Cc1ccc(OC(C)(C)C(=O)O)cc1)Cc1ccco1`, in that order: 670 nM and 13 nM.
For `Cc1oc(-c2cccc(Br)c2)nc1CN(Cc1ccc(OC(C)(C)C(=O)O)cc1)Cc1ccco1`, in that order: 310 nM and 8.1 nM.
The like results for `Cc1oc(-c2cccc(Br)c2)nc1CN(Cc1ccc(OC(C)(C)C(=O)O)cc1)C(=O)c1ccccc1` were, in that order, > 25000 nM and > 25000 nM.
Consider `COc1ccc(CN(Cc2ccc(OC(C)(C)C(=O)O)cc2)Cc2nc(-c3cccc(Br)c3)oc2C)cc1`, for which the figures for the EC50 in data set [1] and in data set [2] were 700 nM and 26 nM, respectively.
The like results for `CCCCN(Cc1ccc(OC(C)(C)C(=O)O)cc1)Cc1nc(-c2cccc(Br)c2)oc1C` were, in that order, 1300 nM and 500 nM.
For `Cc1oc(-c2cccc(Br)c2)nc1CN(Cc1ccccc1)Cc1ccc(OC(C)(C)C(=O)O)cc1`, in that order: 2200 nM and 56 nM.
The like results for `Cc1oc(-c2cccc(Br)c2)nc1CNCc1ccc(OC(C)(C)C(=O)O)cc1` were, in that order, 7700 nM and 670 nM.
As for `Cc1oc(-c2ccccc2)nc1CC(=O)Nc1ccc(OC(C)(C)C(=O)O)cc1`, the EC50 in data set [1] and in data set [2] was > 25000 nM each time.
For `Cc1oc(-c2ccccc2)nc1CNCc1ccc(OC(C)(C)C(=O)O)cc1`, the EC50 in data set [1] was > 25000 nM; in data set [2], 10000 nM.
For `Cc1oc(-c2ccccc2)nc1CNc1ccc(OC(C)(C)C(=O)O)cc1`, in that order: 8800 nM and 7200 nM.
For `Cc1oc(-c2ccccc2)nc1CCNc1ccc(OC(C)(C)C(=O)O)cc1`, in that order: 16000 nM and 5200 nM.
The like results for `Cc1oc(-c2cccc(Br)c2)nc1CCOc1ccc(OC(C)(C)C(=O)O)cc1` were, in that order, 800 nM and 81 nM.
For the molecule `Cc1oc(-c2ccccc2)nc1CCOc1ccc(OC(C)(C)C(=O)O)cc1`, the EC50 in data set [1] is > 25000 nM; in data set [2], 500 nM. For the same molecule, the Activity came to 25% in the data set on Mus musculus [6], 8.4% in the data set with Mus musculus [7] and 56% with Mus musculus [8].
`COc1ccc(OC(=O)N(CC(=O)O)Cc2ccc(OCCc3nc(-c4ccccc4)oc3C)cc2)cc1` [MURAGLITAZAR]: the 50% effective concentration (EC50) in data set [2] stood at 300 nM.
For `CN(CCOc1ccc(CC2SC(=O)NC2=O)cc1)c1ccccn1` (stereo not drawn) [ROSIGLITAZONE], the Activity with Mus musculus [3] was determined as 58%; in the data set with Mus musculus [4], 10.1%; with Mus musculus [5], 54%.
